Non-standard residues stand in square brackets, D forms with d. Residues, ends and D or L forms follow the SMILES beside them. *: point of attachment. X1 = CN(C)c1ccc2c(-c3cc(C(=O)*)ccc3C(=O)[O-])c3ccc(=[N+](C)C)cc-3oc2c1; hArg = N=C(N)NCCCC[C@H](N)C(=O)O; Aib = CC(C)(N)C(=O)O

The target of test [1] is T1, nLuc-PTHR1 (Homo sapiens, UniProt Q03431).
T1 sequence (Q03431 27-593): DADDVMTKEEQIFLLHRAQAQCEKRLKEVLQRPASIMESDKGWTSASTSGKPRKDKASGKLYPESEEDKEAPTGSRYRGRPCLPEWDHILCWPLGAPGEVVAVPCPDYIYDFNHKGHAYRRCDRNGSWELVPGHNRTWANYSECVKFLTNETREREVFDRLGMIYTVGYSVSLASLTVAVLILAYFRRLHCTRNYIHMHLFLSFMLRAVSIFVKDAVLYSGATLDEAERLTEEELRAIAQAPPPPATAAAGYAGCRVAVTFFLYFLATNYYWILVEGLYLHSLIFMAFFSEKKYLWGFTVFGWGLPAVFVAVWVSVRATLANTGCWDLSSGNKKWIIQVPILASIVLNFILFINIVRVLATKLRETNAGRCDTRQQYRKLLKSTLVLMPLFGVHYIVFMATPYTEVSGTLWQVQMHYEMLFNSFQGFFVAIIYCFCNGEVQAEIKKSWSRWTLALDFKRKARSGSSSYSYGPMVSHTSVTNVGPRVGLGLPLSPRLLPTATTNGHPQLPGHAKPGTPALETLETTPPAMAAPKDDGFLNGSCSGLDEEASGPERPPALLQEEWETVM
Type of test: binding. Conditions: HEK293.

A further test addresses T2, nLuc-ΔECD-PTHR1 (Homo sapiens, UniProt Q03431).
T2 sequence (Q03431 182-593 limits assumed): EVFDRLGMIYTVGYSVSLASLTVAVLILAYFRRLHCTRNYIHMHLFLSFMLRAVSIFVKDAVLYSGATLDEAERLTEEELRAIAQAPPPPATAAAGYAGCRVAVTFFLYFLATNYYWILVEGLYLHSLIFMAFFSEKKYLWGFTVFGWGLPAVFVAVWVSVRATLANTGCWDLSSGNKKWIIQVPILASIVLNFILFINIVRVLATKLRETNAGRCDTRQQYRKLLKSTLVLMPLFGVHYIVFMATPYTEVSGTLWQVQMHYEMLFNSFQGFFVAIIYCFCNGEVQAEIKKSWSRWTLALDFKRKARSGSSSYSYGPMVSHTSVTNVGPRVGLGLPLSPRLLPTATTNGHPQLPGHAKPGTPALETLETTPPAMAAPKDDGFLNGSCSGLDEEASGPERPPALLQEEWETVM
Briefly: NanoBRET direct binding on truncated receptor lacking the extracellular domain.

The target in the next test is T3, WT-PTHR1 (Homo sapiens, UniProt Q03431).
T3 sequence (Q03431 27-593): T1 sequence (Q03431 27-593)
Briefly: GloSensor cAMP assay in GP2.3 cells. The conditions noted are these: HEK293, read-out: cAMP formation %Emax. The format is cell-based. A general note: Cyclic AMP is a second messenger, typically raised through Gs and lowered through Gi signalling.

The target of test [2] is T1, nLuc-PTHR1. Briefly: NanoBRET equilibrium competition binding with tracer PTH. The conditions noted are these: ABL up to 1 μM. For orientation: BRET reads energy transfer from a luciferase to a nearby fluorophore.

Consider `CC[C@H](C)[C@H](NC(=O)[C@H](CC(C)C)NC(=O)[C@H](CCCCN)NC(=O)[C@H](Cc1c[nH]cn1)NC(=O)[C@H](CC(C)C)NC(=O)[C@H](Cc1ccccc1)NC(=O)[C@H](C)NC(=O)[C@H](CCCNC(=N)N)NC(=O)[C@H](CCCNC(=N)N)NC(=O)[C@H](CCCNC(=N)N)NC(=O)[C@H](C)NC(=O)[C@H](CC(=O)O)NC(=O)[C@H](CCC(N)=O)NC(=O)[C@@H](NC(=O)[C@H](Cc1c[nH]c2ccccc12)NC(=O)[C@H](CCCCN)NC(=O)[C@H](C)NC(=O)[C@H](CCCNC(=N)N)NC(=O)[C@H](CCC(N)=O)NC(=O)[C@H](Cc1c[nH]cn1)NC(=O)[C@H](CCSC)NC(=O)[C@H](CC(C)C)NC(=O)[C@H](CCC(N)=O)NC(=O)[C@@H](NC(=O)[C@H](CCC(=O)O)NC(=O)[C@H](C)NC(=O)[C@@H](NC(=O)[C@H](C)N)C(C)C)[C@@H](C)CC)[C@@H](C)CC)C(=O)N[C@@H](C)C(=O)N[C@@H](CCC(=O)O)C(=O)N[C@H](C(=O)N[C@@H](Cc1c[nH]cn1)C(=O)N[C@H](C(=O)N[C@@H](C)C(=O)N[C@@H](CCCCNC(=O)c1ccc(C(=O)[O-])c(-c2c3ccc(=[N+](C)C)cc-3oc3cc(N(C)C)ccc23)c1)C(N)=O)[C@@H](C)O)[C@@H](C)CC` [LA-PTH(1-34)-35K^TMR] (H-AVAEIQLMHQRAKWIQDARRRAFLHKLIAEIHTAK(X1)-NH2; N-terminus assumed), for which the results for the koff at nLuc-PTHR1 [1] and on nLuc-ΔECD-PTHR1 were 0.00056 ± 0.0002 s⁻¹ and 0.0097 ± 0.003 s⁻¹, respectively. Also, the values for the on-rate constant (kon) on nLuc-PTHR1 [1] and on nLuc-ΔECD-PTHR1 were 230000 ± 40000 M⁻¹ s⁻¹ and 130000 ± 10000 M⁻¹ s⁻¹, respectively.

In the case of `CC[C@H](C)[C@H](NC(=O)[C@H](CCCCNC(=O)c1ccc(C(=O)[O-])c(-c2c3ccc(=[N+](C)C)cc-3oc3cc(N(C)C)ccc23)c1)NC(=O)[C@H](C)NC(=O)[C@@H](NC(=O)[C@H](Cc1c[nH]cn1)NC(=O)[C@@H](NC(=O)[C@H](CCC(=O)O)NC(=O)[C@H](C)NC(=O)[C@@H](NC(=O)[C@H](CC(C)C)NC(=O)[C@H](Cc1c[nH]cn1)NC(=O)[C@H](Cc1c[nH]cn1)NC(=O)[C@H](CC(C)C)NC(=O)[C@H](Cc1ccccc1)NC(=O)[C@H](Cc1ccccc1)NC(=O)[C@H](CCCNC(=N)N)NC(=O)[C@H](CCCNC(=N)N)NC(=O)[C@H](CCCNC(=N)N)NC(=O)[C@H](CC(C)C)NC(=O)[C@H](CC(=O)O)NC(=O)[C@H](CC(N)=O)NC(=O)[C@H](CC(C)C)NC(=O)[C@H](Cc1c[nH]cn1)NC(=O)[C@H](CCCCN)NC(=O)CNC(=O)[C@H](CC(C)C)NC(=O)[C@H](CC(N)=O)NC(=O)[C@H](Cc1c[nH]cn1)NC(=O)[C@H](CCSC)NC(=O)[C@H](CC(C)C)NC(=O)[C@H](CCC(N)=O)NC(=O)[C@@H](NC(=O)[C@H](CCC(=O)O)NC(=O)[C@H](CO)NC(=O)[C@@H](NC(=O)[C@@H](N)CO)C(C)C)[C@@H](C)CC)[C@@H](C)CC)[C@@H](C)CC)[C@@H](C)O)C(N)=O` [PTH[1-16] PTHrP[17-36]] (H-SVSEIQLMHNLGKHLNDLRRRFFLHHLIAEIHTAK(X1)I-NH2; N-terminus assumed), at nLuc-PTHR1 [1], the koff (in general, the rate constant with which the complex falls apart) came to 0.0017 ± 0.001 s⁻¹ and the kon (commonly a measure of how fast the partners come together) came out at 530000 ± 30000 M⁻¹ s⁻¹. The Emax – broadly, the maximal effect, on the per cent scale that the assay sets – on WT-PTHR1 stood at 103 ± 4%.

On to “ABL: synthetic analogue of PTHrP(1-34) used clinically for osteoporosis”, for which the “displacement of PTH(1-34)K35^TMR tracer (in words)” value in the test with nLuc-PTHR1 [2] is “failed to fully inhibit”.

Consider `CC[C@H](C)[C@H](NC(=O)[C@H](CCC(=O)O)NC(=O)C(C)(C)NC(=O)[C@@H](NC(=O)C(C)(C)N)C(C)C)C(=O)N[C@@H](CCC(N)=O)C(=O)N[C@@H](CC(C)C)C(=O)N[C@@H](CCSC)C(=O)N[C@@H](Cc1c[nH]cn1)C(=O)N[C@@H](CCC(N)=O)C(=O)N[C@@H](CCCCNC(=N)N)C(=O)N[C@@H](C)C(=O)N[C@@H](CCCCN)C(=O)N[C@@H](Cc1c[nH]c2ccccc12)C(=O)N[C@@H](CCCCNC(=O)c1ccc(C(=O)[O-])c(-c2c3ccc(=[N+](C)C)cc-3oc3cc(N(C)C)ccc23)c1)C(N)=O` [M-PTH(1-14)-15K^TMR] (H-[Aib]V[Aib]EIQLMHQ[hArg]AKWK(X1)-NH2; N-terminus assumed), for which, on nLuc-PTHR1 [1], the koff amounted to 0.024 ± 0.001 s⁻¹ and the kon was 77000 ± 20000 M⁻¹ s⁻¹. Further, on nLuc-ΔECD-PTHR1, the off-rate constant (koff) was found to be 0.018 ± 0.003 s⁻¹ and the kon amounted to 180000 ± 50000 M⁻¹ s⁻¹.

Take `CC[C@H](C)[C@H](NC(=O)[C@H](CCCCNC(=O)c1ccc(C(=O)[O-])c(-c2c3ccc(=[N+](C)C)cc-3oc3cc(N(C)C)ccc23)c1)NC(=O)[C@H](C)NC(=O)[C@@H](NC(=O)[C@H](Cc1c[nH]cn1)NC(=O)[C@@H](NC(=O)[C@H](CCC(=O)O)NC(=O)[C@H](C)NC(=O)[C@@H](NC(=O)[C@H](CC(C)C)NC(=O)[C@H](Cc1c[nH]cn1)NC(=O)[C@H](Cc1c[nH]cn1)NC(=O)[C@H](CC(C)C)NC(=O)[C@H](Cc1ccccc1)NC(=O)[C@H](Cc1ccccc1)NC(=O)[C@H](CCCNC(=N)N)NC(=O)[C@H](CCCNC(=N)N)NC(=O)[C@H](CCCNC(=N)N)NC(=O)[C@H](CC(C)C)NC(=O)[C@H](CC(=O)O)NC(=O)[C@H](CCC(N)=O)NC(=O)[C@@H](NC(=O)[C@H](CO)NC(=O)[C@H](CCCCN)NC(=O)CNC(=O)[C@H](CC(C)C)NC(=O)[C@H](CC(N)=O)NC(=O)[C@H](Cc1c[nH]cn1)NC(=O)[C@H](CCSC)NC(=O)[C@H](CC(C)C)NC(=O)[C@H](CCC(N)=O)NC(=O)[C@@H](NC(=O)[C@H](CCC(=O)O)NC(=O)[C@H](CO)NC(=O)[C@@H](NC(=O)[C@@H](N)CO)C(C)C)[C@@H](C)CC)[C@@H](C)CC)[C@@H](C)CC)[C@@H](C)CC)[C@@H](C)O)C(N)=O` [PTH[1-12] PTHrP[13-36]] (H-SVSEIQLMHNLGKSIQDLRRRFFLHHLIAEIHTAK(X1)I-NH2; N-terminus assumed): on nLuc-PTHR1 [1], the koff was determined as 0.0035 ± 0.001 s⁻¹ and the kon stood at 800000 ± 50000 M⁻¹ s⁻¹. Moreover, the Emax at WT-PTHR1 was 107 ± 5%.

(Values after publication PMC9747329 (ACS chemical biology, 2022).)
